The values that follow come from patent US5292498A, “Method of treating lung disease with uridine triphosphates” (The University of North Carolina At Chapel Hill, priority 1991, dated 1994).

Experiment [1] deals with normal human nasal epithelium. Briefly: Bioelectric studies (short circuit current, Isc) of normal human nasal epithelium in Ussing chambers. It is filed as cell-based. The note with it: for rank order of potency for Cl^- secretion: FIG. 2; for rank order of potency for increase in Isc / change in ion transport rates / character of concentration-effect curve including 10^-3 M / character of log concentration-effect curve: basolateral surface; for rank order of potency for increase in Isc / change in ion transport rates: FIG. 1; for change in ion transport rates: compared to ATP curve; for character of concentration-effect curve including 10^-3 M: 10^-3 M drug considered; for character of log concentration-effect curve: 10^-7 to 10^-4 M; for increase in Isc: dipyridamole 10^-6 M. As for the experimental part:
(§1) Freshly excised human nasal epithelium from normal or cystic fibrosis subjects was grown in primary culture in F-12, hormone-supplemented medium in accordance with known procedures. See R. Wu et al., Am. Rev. Respir. Dis. 132, 311-320 (1985). For [Ca^2+ ]i measurements, cultures were grown on non-fluorescent vitrogen substrates on glass coverslips. Cultures for electrophysiologic studies were grown to confluence on permeable collagen matrix supports (CMS), allowing addition of agonists to the basolateral or apical surface of the epithelial sheet.
(§2) Confluent monolayers of primary human nasal epithelium were mounted in modified Ussing chambers in accordance with known procedures. See, e.g., R. Boucher et al., J. Physiol. (Lond.) 405, 77-103 (1988); M. Knowles et al., Science 221, 1067-1070 (1983). The studies described below were performed under short circuit current conditions at 37° C., and in some studies, amiloride was added to the apical bath (10^-4 M) to block transepithelial sodium transport. Changes in transepithelial potential difference (Vt), resistance (Rt) and short circuit current (Isc) were measured in response to addition of various nucleotides. Each cultured preparation was exposed to only one concentration of an agonist on either the basolateral or apical surface to avoid the tachyphylaxis observed in preliminary cumulative dose response studies. To construct concentration-effect relationships of responses to nucleotides, it was assumed that the same maximum response to an agonist could be induced from each tissue culture preparation from the same individual.
The effects of extracellular ATP on normal human nasal epithelium were investigated employing bioelectric measurements of ion transport activity when the nucleotide was applied to either the apical or basolateral membrane. […] In general, the change in Isc induced by application of ATP to the apical or the basolateral side returned to baseline or below within 5 minutes after addition of agonist. […] Apical pretreatment with amiloride (10^-4 M) removes active Na^+ absorption as a component of the Isc so that the residual Isc reflects a Cl^- secretory current (R. Boucher et al., J. Clin. Invest. 78, 1245-1252 (1986); N. Willumsen et al., Am. J. Physiol. 256, C1033-C1044 (1989)).
A concentration-effect relationship was found when ATP was applied to normal human nasal epithelium under basal conditions (data not shown). Comparisons were made between responses of tissues from different donors based on the peak change in Isc following ATP application. The curve describes the mean peak change in Isc in response to log increasing concentrations of ATP applied to the apical or basolateral surface.
Concentration-effect relationships were also found for ATP applied to the apical or basolateral membrane of amiloride-pretreated tissues (data not shown). Again, the nucleotide's effect on ion transport was examined as the mean peak change in Isc after ATP application.
(§3) The purinergic receptor subtype(s) linked to regulation of ion transport of human nasal epithelium were characterized by obtaining concentration-effect relationships for a variety of purine and pyrimidine agonists in preparations derived from normal and CF patients. We characterized receptor subtype(s) on the […] surface by measuring nucleotide effect on basal Na^+ transport rates. Because therapies designed to induce Cl^- secretion might best be delivered by the aerosol route, receptor subtype characterization on the apical barrier was performed in the presence of amiloride. The effect of extracellular nucleotides on ion transport is reported as the percent change in Isc from control values when applied to the basolateral or apical surface of the culture. Basal pre-agonist currents were similar for tissues in each concentration group.

In experiment [2] the test system is normal human nasal epithelial cells. As to the kind of experiment: Intracellular calcium [Ca^2+ ]i in single normal human nasal epithelial cells (Fura-2). Type of experiment: cell-based. The note with it: concentration-effect curves, FIG. 3. As for the experimental part: as §1
Primary human nasal epithelial cells grown to confluence on vitrogen coated coverslips were loaded with a final concentration of 3 μM Fura-2/AM at 37° C. for 30 minutes. The cells were then washed in NaCl Ringer and mounted in a chamber for measurements of fluorescence. To reduce the rate of leakage of Fura-2 from the cell into the extracellular space and avoid time-dependent compartmentalization of the probe, all measurements of [Ca^2+ ]i were performed at 25° C. At this temperature,no vesicular bright spots indicative of compartmentalization of the probe were observed.
Measurements of [Ca^2+ ]i in single human nasal epithelial cells were obtained with a modular microspectrofluorimeter (SPEX Industries, Inc., Edison, N.J.) attached to a Zeiss Axiovert IM 35 microscope. The system was equipped with a xenon lamp, beam splitter, two monochromators and a rotating chopper mirror that permitted excitation of cell fluorescence at alternating wavelengths of 340 and 380 nm (emission ≥450 nm). The fluorescent signal from a single cell was measured with a photometer equipped with a pinhole (spot diameter of 3-5 μm) that excluded signals from adjacent cells.
After agonist was added, the fluorescent signal was quenched by a NaCl ringer solution containing 1.5×10^-4 M digitonin and 10^-3 M MnCl2. The remaining signal at each excitation wavelength, equivalent to the background fluorescence in non loaded cells, was subtracted from data from Fura-2/AM loaded cells before the ratio (340 nm/380 nm) was taken. The 340 nm/380 nm ratio was converted to an actual [Ca^2+ ]i measurement by using the external calibration standards and the formula derived by G. Grynkiewicz et al., J. Biol. Chem. 260, 3440-3450 (1985), used with dual wavelength measurements: [Ca^2+ ]i =K [(Rx --Ro)/(Rs --Rx)], with Ro and Rs representing the ratios at 0 Ca^2+ and saturating Ca^2+, respectively. Rx represents the experimental ratio.
To investigate whether changes in [Ca^2+ ]i might be related to regulation of ion transport, receptor characterization was performed by measuring changes in [Ca^2+ ]i in response to a number of nucleotide drugs. Concentration-effect curves for agonists active at P2x, P2y subtype or UTP sensitive receptors and other purine or pyrimidine receptor agonists were generated, measuring mean change in [Ca^2+ ]i in response to agonist concentration. Data are shown in FIG. 3, which gives log concentration-effect relationships of purinergic and pyrimidinergic compounds on [Ca^2+ ]i (mean change in [Ca^2+ ]i over basal levels).
For orientation: Calcium assays in cells follow changes in intracellular calcium, usually with a dye or a luminescent sensor.

Experiment [3] deals with CF human nasal epithelium. As to the kind of experiment: Bioelectric studies (Isc) of cystic fibrosis (CF) human nasal epithelium. The settings on record: for Isc response tracing: apical, amiloride-pretreated, FIG. 4C. It is filed as cell-based. As for the experimental part:
as §1, §2, §3
Availability of Cystic Fibrosis (CF) tissues is limited, and our investigation of effects of nucleotides was restricted to examining regulation of Cl^- secretion rates and [Ca^2+ ]i levels by ATP and UTP.

The subject of experiment [4] is CF nasal epithelial cells. Briefly: Intracellular calcium [Ca^2+ ]i in single CF nasal epithelial cells (Fura-2). It is filed as cell-based, human. The note with it: FIG. 6. As to the method:
Freshly excised human nasal epithelium from normal or cystic fibrosis subjects was grown in primary culture in F-12, hormone-supplemented medium in accordance with known procedures. See R. Wu et al., Am. Rev. Respir. Dis. […] For [Ca^2+ ]i measurements, cultures were grown on non-fluorescent vitrogen substrates on glass coverslips. Cultures for electrophysiologic studies were grown to confluence on permeable collagen matrix supports (CMS), allowing addition of agonists to the basolateral or apical surface of the epithelial sheet.
Primary human nasal epithelial cells grown to confluence on vitrogen coated coverslips were loaded with a final concentration of 3 μM Fura-2/AM at 37° C. for 30 minutes. The cells were then washed in NaCl Ringer and mounted in a chamber for measurements of fluorescence. To reduce the rate of leakage of Fura-2 from the cell into the extracellular space and avoid time-dependent compartmentalization of the probe, all measurements of [Ca^2+ ]i were performed at 25° C.
Measurements of [Ca^2+ ]i in single human nasal epithelial cells were obtained with a modular microspectrofluorimeter (SPEX Industries, Inc., Edison, N.J.) attached to a Zeiss Axiovert IM 35 microscope. […] The fluorescent signal from a single cell was measured with a photometer equipped with a pinhole (spot diameter of 3-5 μm) that excluded signals from adjacent cells. […]

For experiment [5] the following is noted: 25° C.; read-out: Kd (effective dissociation constant for Fura-2); cited from earlier work.
Setting [6] is: apical surface, amiloride-pretreated.

As to `CSc1nc(N)c2ncn([C@@H]3O[C@H](COP(=O)(O)OP(=O)(O)OP(=O)(O)O)[C@@H](O)[C@H]3O)c2n1` [2MeSATP, 2-methylthio ATP], the “rank order of potency for Cl^- secretion” value in experiment [1] (setting [6]) is given as “ATP≥UTP>ATPγS>ADP>2MeSATP>ADPβS”. In addition, the “rank order of potency for increase in Isc” value in experiment [1] is on record as 2MeSATP>UTP≥ATP>ATPγS>ADP>ADPβS. In experiment [2], the “effectiveness for raising [Ca^2+ ]i” value is “little effect”.
As for `Nc1ncnc2c1ncn2[C@@H]1O[C@H](COP(=O)(O)OP(=O)(O)CP(=O)(O)O)[C@@H](O)[C@H]1O` [βγMeATP, β,γ-methylene ATP], in experiment [1], the “change in ion transport rates” value is recorded as “little change in ion transport rates”. In experiment [2], the “effectiveness for raising [Ca^2+ ]i” value was “little effect”.
As to `O=c1ccn([C@@H]2O[C@H](COP(=O)(O)OP(=O)(O)OP(=O)(O)O)[C@@H](O)[C@H]2O)c(=O)[nH]1` [UTP, uridine 5'-triphosphate], the “rank order of potency for Cl^- secretion” value in experiment [1] (setting [6]) is given as “ATP≥UTP>ATPγS>ADP>2MeSATP>ADPβS”. In experiment [1], the “character of concentration-effect curve including 10^-3 M” value is “biphasic in character”, the “character of log concentration-effect curve” value was “sigmoidal character” and the “rank order of potency for increase in Isc” value is given as 2MeSATP>UTP≥ATP>ATPγS>ADP>ADPβS. Further, the Isc response tracing entry in experiment [3] (UTP 10^-4 M as printed) is reported as “Cl^- secretory response”. In addition, in experiment [3] (UTP 10^-6 M as printed), the Isc response tracing entry is “Cl^- secretory response”. In addition, in experiment [3] (apical surface, amiloride-pretreated CF tissues), the “change in Isc over basal levels” value was “routinely stimulated increases in Cl^- secretion”. For the same molecule, in experiment [2], the “effectiveness for raising [Ca^2+ ]i” value was “most effective agonists”. Besides, the “[Ca^2+ ]i response in CF tissues” value in experiment [4] was “Increases in [Ca^2+ ]i”.
For the molecule `O=c1[nH]c(=O)n([C@@H]2O[C@H](COP(=O)(O)OP(=O)(O)OP(=O)(O)O)[C@@H](O)[C@H]2O)cc1Br` [5BrUTP, 5-bromo-uridine 5'-triphosphate], in experiment [2], the “effectiveness for raising [Ca^2+ ]i” value is on record as “essentially as effective as UTP”.
Consider `Nc1ncnc2c1ncn2[C@@H]1O[C@H](COP(=O)(O)OP(=O)(O)OP(O)(O)=S)[C@@H](O)[C@H]1O` [ATPγS], for which the “rank order of potency for Cl^- secretion” value in experiment [1] (setting [6]) is “ATP≥UTP>ATPγS>ADP>2MeSATP>ADPβS”. Besides, in experiment [1], the “character of concentration-effect curve including 10^-3 M” value is listed as “biphasic in character”, the “character of log concentration-effect curve” value is “sigmoidal character” and the “rank order of potency for increase in Isc” value is recorded as 2MeSATP>UTP≥ATP>ATPγS>ADP>ADPβS. Further, the “effectiveness for raising [Ca^2+ ]i” value in experiment [2] is on record as “most effective agonists”.
For `Nc1ncnc2c1ncn2[C@@H]1O[C@H](COP(=O)(O)OP(O)(O)=S)[C@@H](O)[C@H]1O` [ADPβS], in that order: “ATP≥UTP>ATPγS>ADP>2MeSATP>ADPβS”, “biphasic in character”, “sigmoidal character”, 2MeSATP>UTP≥ATP>ATPγS>ADP>ADPβS and “little effect”.
As for `Cc1ccc(N(CC(=O)O)CC(=O)O)c(OCCOc2cc3cc(-c4ncc(C(=O)O)o4)oc3cc2N(CC(=O)O)CC(=O)O)c1` [Fura-2], in experiment [5], the Kd is 157 nM.
As to `Nc1ncnc2c1ncn2[C@@H]1O[C@H](COP(=O)(O)CP(=O)(O)OP(=O)(O)O)[C@@H](O)[C@H]1O` [αβMeATP, α,β-methylene ATP], the “change in ion transport rates” value in experiment [1] is listed as “little change in ion transport rates”. Also, the “effectiveness for raising [Ca^2+ ]i” value in experiment [2] is reported as “little effect”.
As for `Nc1ncnc2c1ncn2[C@@H]1O[C@H](COP(=O)(O)OP(=O)(O)O)[C@@H](O)[C@H]1O` [ADP], the “rank order of potency for Cl^- secretion” value in experiment [1] (setting [6]) is on record as “ATP≥UTP>ATPγS>ADP>2MeSATP>ADPβS”. Also, the “rank order of potency for increase in Isc” value in experiment [1] was 2MeSATP>UTP≥ATP>ATPγS>ADP>ADPβS.
As to `Nc1ncnc2c1ncn2[C@@H]1O[C@H](CO)[C@@H](O)[C@H]1O` [adenosine], the “increase in Isc” value in experiment [1] (10^-4 M, apical surface, amiloride-pretreated, n=8) is 10±6%; in experiment [1] (10^-5 M or 10^-4 M, basolateral barrier, n=8 each dose), “less than 5%”; in experiment [1] (10^-5 M, apical surface, amiloride-pretreated, n=7), 10±7%. Further, in experiment [1] (following preincubation with dipyridamole 10^-6 M), the “change in Isc compared to ATP” value was “only small and variable changes in Isc compared to ATP”.

In general, Kd refers to the equilibrium constant for the complex coming apart.
